Source: PubChem BioAssay (NCI)
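96-well plates; 48 h exposure; 5 concentrations. Endpoints by linear interpolation between flanking doses. Not reached: highest tested concentration assigned. At the GI50, growth is halved. TGI denotes the concentration required for complete inhibition of growth.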

Tests used:
Assay in all cases: DTP human tumour cell line panel, 48 h
IGROV1 ovarian = test system: IGROV1 ovarian
UACC-62 melanoma = test system: UACC-62 melanoma
MDA-MB-468 breast = test system: MDA-MB-468 breast
OVCAR-8 ovarian = test system: OVCAR-8 ovarian
SW-620 colon = test system: SW-620 colon
SF-539 CNS = test system: SF-539 CNS
HOP-62 NSCLC = test system: HOP-62 NSCLC
SF-268 CNS = test system: SF-268 CNS
SK-OV-3 ovarian = test system: SK-OV-3 ovarian
HCT-116 colon = test system: HCT-116 colon
A498 renal = test system: A498 renal
HCT-15 colon = test system: HCT-15 colon
MDA-MB-435 = test system: MDA-MB-435
CCRF-CEM leukemia = test system: CCRF-CEM leukemia
NCI-H23 lung = test system: NCI-H23 lung
RXF 393 renal = test system: RXF 393 renal
OVCAR-3 ovarian = test system: OVCAR-3 ovarian
EKVX NSCLC = test system: EKVX NSCLC
BT-549 breast = test system: BT-549 breast
SF-295 CNS = test system: SF-295 CNS
OVCAR-4 ovarian = test system: OVCAR-4 ovarian
SN12C renal = test system: SN12C renal
KM12 colon = test system: KM12 colon
CAKI-1 renal = test system: CAKI-1 renal
TK-10 renal = test system: TK-10 renal
SK-MEL-28 melanoma = test system: SK-MEL-28 melanoma
HOP-92 NSCLC = test system: HOP-92 NSCLC
K-562 leukemia = test system: K-562 leukemia
HT29 colon = test system: HT29 colon
MOLT-4 leukemia = test system: MOLT-4 leukemia
HCC-2998 colon = test system: HCC-2998 colon
SR leukemia = test system: SR leukemia
LOX IMVI melanoma = test system: LOX IMVI melanoma
786-0 renal = test system: 786-0 renal
RPMI-8226 leukemia = test system: RPMI-8226 leukemia
MCF7 breast = test system: MCF7 breast
PC-3 prostate = test system: PC-3 prostate
DU-145 prostate = test system: DU-145 prostate
M14 melanoma = test system: M14 melanoma
NCI-H522 lung = test system: NCI-H522 lung
ACHN renal = test system: ACHN renal
NCI-H460 lung = test system: NCI-H460 lung
MALME-3M melanoma = test system: MALME-3M melanoma
SK-MEL-5 melanoma = test system: SK-MEL-5 melanoma
UACC-257 melanoma = test system: UACC-257 melanoma
NCI-H226 lung = test system: NCI-H226 lung
SNB-19 CNS = test system: SNB-19 CNS
U251 CNS = test system: U251 CNS
A549 NSCLC = test system: A549 NSCLC
COLO 205 colon = test system: COLO 205 colon
T-47D breast = test system: T-47D breast
HS 578T breast = test system: HS 578T breast
HL-60(TB) leukemia = test system: HL-60(TB) leukemia
OVCAR-5 ovarian = test system: OVCAR-5 ovarian
NCI/ADR-RES ovarian = test system: NCI/ADR-RES ovarian

`Cc1ccc(Cl)cc1NC(=O)Nc1nc2ccc([N+](=O)[O-])cc2s1` was tested, and the GI50 (IGROV1 ovarian) was 3.92 µM, the TGI (IGROV1 ovarian) was 14.3 µM and the GI50 (UACC-62 melanoma) was 2.86 µM. For the same compound, the TGI (UACC-62 melanoma) was 11.5 µM, the GI50 (MDA-MB-468 breast) was 2.24 µM and the TGI (MDA-MB-468 breast) was 6.6 µM. For the same compound, the GI50 (OVCAR-8 ovarian) was 3.07 µM, the TGI (OVCAR-8 ovarian) was 11.7 µM and the GI50 (SW-620 colon) was 3.06 µM. The TGI (SW-620 colon) was 12.4 µM, the GI50 (SF-539 CNS) was 2.6 µM and the TGI (SF-539 CNS) was 6.9 µM. The GI50 (HOP-62 NSCLC) was 3.47 µM, the TGI (HOP-62 NSCLC) was 11.2 µM and the GI50 (SF-268 CNS) was 3.48 µM. The TGI (SF-268 CNS) was 13.8 µM, the GI50 (SK-OV-3 ovarian) was 2.19 µM and the TGI (SK-OV-3 ovarian) was 6.52 µM. For the same compound, the GI50 (HCT-116 colon) was 2.81 µM, the TGI (HCT-116 colon) was 11 µM and the GI50 (A498 renal) was 2.38 µM. The TGI (A498 renal) was 6.29 µM, the GI50 (HCT-15 colon) was 2.93 µM and the TGI (HCT-15 colon) was 11.3 µM. It also gave a GI50 (MDA-MB-435) of 3.33 µM, a TGI (MDA-MB-435) of 12.2 µM and a GI50 (CCRF-CEM leukemia) of 3.02 µM. The TGI (CCRF-CEM leukemia) was 12.5 µM, the GI50 (NCI-H23 lung) was 2.27 µM and the TGI (NCI-H23 lung) was 6.58 µM. It also gave a GI50 (RXF 393 renal) of 2.54 µM, a TGI (RXF 393 renal) of 9.73 µM and a GI50 (OVCAR-3 ovarian) of 3.25 µM. For the same compound, the TGI (OVCAR-3 ovarian) was 11.6 µM, the GI50 (EKVX NSCLC) was 2.79 µM and the TGI (EKVX NSCLC) was 10.1 µM. The GI50 (BT-549 breast) was 2.35 µM, the TGI (BT-549 breast) was 7.92 µM and the GI50 (SF-295 CNS) was 2.24 µM. The TGI (SF-295 CNS) was 6.59 µM, the GI50 (OVCAR-4 ovarian) was 3.36 µM and the TGI (OVCAR-4 ovarian) was 14.2 µM. It also gave a GI50 (SN12C renal) of 2.86 µM, a TGI (SN12C renal) of 9.7 µM and a GI50 (KM12 colon) of 3.1 µM. It also gave a TGI (KM12 colon) of 10.3 µM, a GI50 (CAKI-1 renal) of 3.18 µM and a TGI (CAKI-1 renal) of 11.7 µM. The GI50 (TK-10 renal) was 3.49 µM, the TGI (TK-10 renal) was 13 µM and the GI50 (SK-MEL-28 melanoma) was 3.42 µM. For the same compound, the TGI (SK-MEL-28 melanoma) was 12.3 µM, the GI50 (HOP-92 NSCLC) was 2.29 µM and the TGI (HOP-92 NSCLC) was 6.42 µM. It also gave a GI50 (K-562 leukemia) of 2.5 µM, a TGI (K-562 leukemia) of 10.2 µM and a GI50 (HT29 colon) of 3.28 µM. The TGI (HT29 colon) was 10.5 µM, the GI50 (MOLT-4 leukemia) was 2.3 µM and the TGI (MOLT-4 leukemia) was 6.76 µM. For the same compound, the GI50 (HCC-2998 colon) was 3.43 µM, the TGI (HCC-2998 colon) was 10.9 µM and the GI50 (SR leukemia) was 2.05 µM. It also gave a TGI (SR leukemia) of 5.63 µM, a GI50 (LOX IMVI melanoma) of 3.28 µM and a TGI (LOX IMVI melanoma) of 12.1 µM. It also gave a GI50 (786-0 renal) of 2.73 µM, a TGI (786-0 renal) of 10 µM and a GI50 (RPMI-8226 leukemia) of 1.85 µM. It also gave a TGI (RPMI-8226 leukemia) of 5.58 µM, a GI50 (MCF7 breast) of 2.71 µM and a TGI (MCF7 breast) of 8.92 µM. It also gave a GI50 (PC-3 prostate) of 2.97 µM, a TGI (PC-3 prostate) of 11.3 µM and a GI50 (DU-145 prostate) of 3.68 µM. It also gave a TGI (DU-145 prostate) of 14.1 µM, a GI50 (M14 melanoma) of 2.87 µM and a TGI (M14 melanoma) of 10.8 µM. The GI50 (NCI-H522 lung) was 2.08 µM, the TGI (NCI-H522 lung) was 7.17 µM and the GI50 (ACHN renal) was 3.09 µM. The TGI (ACHN renal) was 10.6 µM, the GI50 (NCI-H460 lung) was 2.69 µM and the TGI (NCI-H460 lung) was 10.2 µM. It also gave a GI50 (MALME-3M melanoma) of 2.17 µM, a TGI (MALME-3M melanoma) of 6.39 µM and a GI50 (SK-MEL-5 melanoma) of 1.84 µM. For the same compound, the TGI (SK-MEL-5 melanoma) was 3.6 µM, the GI50 (UACC-257 melanoma) was 2.21 µM and the TGI (UACC-257 melanoma) was 6.63 µM. It also gave a GI50 (NCI-H226 lung) of 3.34 µM, a TGI (NCI-H226 lung) of 12 µM and a GI50 (SNB-19 CNS) of 3.43 µM. It also gave a TGI (SNB-19 CNS) of 12.7 µM, a GI50 (U251 CNS) of 3.06 µM and a TGI (U251 CNS) of 10.7 µM. For the same compound, the GI50 (A549 NSCLC) was 2.94 µM, the TGI (A549 NSCLC) was 10.1 µM and the GI50 (COLO 205 colon) was 1.85 µM. For the same compound, the TGI (COLO 205 colon) was 3.58 µM, the GI50 (T-47D breast) was 2.31 µM and the TGI (T-47D breast) was 7.87 µM. The GI50 (HS 578T breast) was 2.75 µM, the TGI (HS 578T breast) was 9.4 µM and the GI50 (HL-60(TB) leukemia) was 1.88 µM. For the same compound, the TGI (HL-60(TB) leukemia) was 4.7 µM, the GI50 (OVCAR-5 ovarian) was 3.33 µM and the TGI (OVCAR-5 ovarian) was 11.9 µM. It also gave a GI50 (NCI/ADR-RES ovarian) of 2.54 µM and a TGI (NCI/ADR-RES ovarian) of 9.04 µM.
